Measured values published in patent publication US6444670B2 (Wyeth, priority 1998, dated 2002).

Tests used:
diabetic (ob/ob) mice = assay: Blood glucose lowering in diabetic (ob/ob) mice; format: in vivo, mouse; conditions: for % Change Glucose from Vehicle: plasma glucose
From the text: The procedures used and results obtained are briefly described below.
The non-insulin dependent diabetic (NIDDM) syndrome can be typically characterizes by obesity, hyperglycemia, abnormal insulin secretion, hyperinsulinemia and insulin resistance.
In each test procedure, mice [Male or female ob/ob (C57 B1/6J) and their lean litermates (ob/+ or +/+, Jackson Laboratories) ages 2 to 5 months (10 to 65 g)] of a similar age were randomized according to body weight into 4 groups of 10 mice. The mice were housed 5 per cage and are maintained on normal rodent chow with water ad libitum. Mice received test compound daily by gavage (suspended in 0.5 ml of 0.5% methyl cellulose); dissolved in the drinking water; or admixed in the diet. The dose of compounds given ranges from 2.5 to 200 mg/kg body weight/day. The dose is calculated based on the fed weekly body weight and is expressed as active moiety. […] Control mice received vehicle only.
On the morning of Day 4, 7 or 14 two drops of blood (approximetly 50 ul) were collected into sodium fluoride containing tubes either from the tail vein or after decapitation. For those studies in which the compound was administered daily by gavage the blood samples were collected 0 and 4 hours after compound administration. The plasma was isolated by centrifugation and the concentration of glucose is measured enzymatically on an Abbott V. P. Analyzer.
For each mouse, the percentage change in plasma glucose on Day 4, 7 or 14 is calculated relative to the mean plasma glucose of the vehicle treated mice. Analysis of variance followed by Dunett's Comparison Test (one-tailed) are used to estimate the significant difference between the plasma glucose values from the control group and the individual compound treated groups (CMS SAS Release 5.18).

[1] = target: T1, Human recombinant PTP1B (hPTP1B) (Homo sapiens, UniProt P18031); format: biochemical
T1 construct: made in house
T1 sequence (P18031 1-435): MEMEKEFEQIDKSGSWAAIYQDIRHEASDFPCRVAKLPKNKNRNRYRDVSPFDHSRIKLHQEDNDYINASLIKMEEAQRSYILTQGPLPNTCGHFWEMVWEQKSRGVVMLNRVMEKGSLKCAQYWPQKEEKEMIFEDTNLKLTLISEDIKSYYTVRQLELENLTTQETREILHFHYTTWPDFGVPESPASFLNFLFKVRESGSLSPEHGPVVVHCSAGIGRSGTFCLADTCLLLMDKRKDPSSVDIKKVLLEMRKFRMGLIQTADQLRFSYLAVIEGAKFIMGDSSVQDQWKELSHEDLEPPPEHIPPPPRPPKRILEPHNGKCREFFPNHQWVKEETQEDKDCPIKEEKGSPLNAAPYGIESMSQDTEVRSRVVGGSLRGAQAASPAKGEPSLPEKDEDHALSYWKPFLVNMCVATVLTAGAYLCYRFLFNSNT

[2] = test system: rat hepatic microsomal PTPases; conditions: 50 μM compound
[3] = dose 25 mg/Kg, (a) = no significant activity (p < 0.05) at this dose
[4] = dose 10 mg/Kg, (a) = no significant activity (p < 0.05) at this dose

| Structure (SMILES) | melting point [°C] | IC50 [1] [nM] | % Change from Control [2] [%] | % Change Glucose from Vehicle (diabetic (ob/ob) mice; [3]) | further results |
| --- | --- | --- | --- | --- | --- |
| CC1(COc2ccc(CC3SC(=O)NC3=O)cc2)CCCCC1 (stereo not shown) [Ciglitazone, 5-(4-(1-methylcyclohexylmethoxy)benzyl)-2,4-dione, reference compound] | – | – | – | – | % Change Insulin from Vehicle (diabetic (ob/ob) mice; dose 100 mg/Kg): −39 ^ %; % Change Glucose from Vehicle (diabetic (ob/ob) mice; dose 100 mg/Kg): −43 ^ % |
| CC(=O)Oc1ccc(-c2c3ccccc3cc3sc(C)c(C)c23)cc1 [Example 6, Acetic Acid 4-(2,3-dimethyl-naphtho[2,3-b]thiophen-4-yl)-phenyl ester] | 147 to 150 | – | – | – | – |
| CC(=O)Oc1ccc(-c2c3ccccc3c(Br)c3sc(C)c(C)c23)cc1 [Example 7, Acetic Acid 4-(9-bromo-2,3-dimethyl-naphtho[2,3-b]thiophen-4-yl)-phenyl ester] | 190 to 191 | – | – | – | – |
| Cc1sc2c(Br)c3ccccc3c(-c3ccc(O)cc3)c2c1C [Example 8, 4-(9-Bromo-2,3-dimethyl-naphtho[2,3-b]thiophen-4-yl)-phenol] | 165 to 168 | – | – | – | – |
| Cc1sc2c(I)c3ccccc3c(-c3ccc(OS(C)(=O)=O)cc3)c2c1C [Example 11, Methanesulfonic acid 4-(9-iodo-2,3-dimethyl-naphtho[2,3-b]thiophen-4-yl)-phenyl ester] | 212 to 213 | – | – | – | – |
| Cc1sc2c(Sc3ccccc3)c3ccccc3c(-c3cc(Br)c(O)c(Br)c3)c2c1C [Example 13, 2,6-Dibromo-4-(2,3-dimethyl-9-phenylsulfanyl-naphtho[2,3-b]thiophen-4-yl)-phenol] | 237 to 239 | – | – | – | – |
| COC(=O)[C@@H](Cc1ccccc1)Oc1c(Br)cc(-c2c3ccccc3c(Br)c3sc(C)c(C)c23)cc1Br [Example 28, (R)-2-[2,6-Dibromo-4-(9-bromo-2,3-dimethyl-naphtho[2,3-b]thiophen4-yl)-phenoxy]3-phenyl-propionic acid methyl ester] | 174 to 175 | – | – | – | – |
| Cc1sc2c(Br)c3ccccc3c(-c3cc(Br)c(O[C@H](Cc4ccccc4)C(=O)O)c(Br)c3)c2c1C [Example 29, (R)-2-[2,6-Dibromo-4-(9-bromo-2,3-dimethyl-naphtho[2,3-b]thiophen-4-yl)-phenoxy]3-phenyl-propionic acid] | – | 115 | −83.54 | −38.18 ^ % | % Change Insulin from Vehicle (diabetic (ob/ob) mice; dose 10 mg/Kg): −48.11 ^ %; % Change Insulin from Vehicle (diabetic (ob/ob) mice; [3]): −80.50 ^ %; % Change Insulin from Vehicle (diabetic (ob/ob) mice; dose 100 mg/Kg): −89.59 ^ %; % Change Glucose from Vehicle (diabetic (ob/ob) mice; [4]): −18.6 (a) %; % Change Glucose from Vehicle (diabetic (ob/ob) mice; dose 100 mg/Kg): −48.63 ^ % |
| Cc1sc2c(Br)c3ccccc3c(-c3cc(Br)c(O[C@H](CCc4ccccc4)C(=O)O)c(Br)c3)c2c1C [Example 32, (R)-2-[2,6-Dibromo-4-(9-bromo-2,3-dimethyl-naphtho[2,3-b]thiophen-4-yl)-phenoxy]-4-phenyl-butyric acid] | – | 60 | −89.41 | −15.68 (a) % | % Change Insulin from Vehicle (diabetic (ob/ob) mice; [3]): −48.35 ^ % |
| Cc1sc2c(Sc3ccccc3)c3ccccc3c(-c3cc(Br)c(O[C@H](Cc4ccccc4)C(=O)O)c(Br)c3)c2c1C [Example 33, (R)-2-[2,6-dibromo-4-(2,3-dimethyl-9-phenylsulfanyl-naphtho[2,3-b]thiophen-4-yl)-phenoxy]-3-phenyl-propionic acid] | – | 29 | −61.92 | −21.10 (a) % | % Change Insulin from Vehicle (diabetic (ob/ob) mice; [3]): −39.3 ^ % |
| Cc1c(CN2CCOCC2)sc2c(Br)c3ccccc3c(-c3cc(Br)c(OC(Cc4ccccc4)C(=O)O)c(Br)c3)c12 (stereo not shown) [Example 35, 2-[2,6-Dibromo-4-(9-bromo-3-methyl-2-morpholin-4-ylmethyl-naphtho[2,3-b]thiophen-4-yl)-phenoxy]-3-phenyl-propionic acid] | – | 273 | −58.85 | −25.58 ^ % | % Change Insulin from Vehicle (diabetic (ob/ob) mice; [3]): −2.98 (a) % |
| Cc1sc2c(Br)c3ccccc3c(-c3cc(Br)c(O)c(C(C)C)c3)c2c1C [Example 39, 2-Bromo-4-(9-bromo-2,3-dimethyl-naphtho[2,3-b]thiophen-4-yl)-6-isopropyl-phenol] | 157 to 162 | 1740 | – | – | – |
| Cc1sc2c(Br)c3ccccc3c(-c3cc(Br)c(O[C@H](Cc4ccccc4)C(=O)O)c(C(C)C)c3)c2c1C [Example 40, (R)-2-[2-Bromo-4-(9-bromo-2,3-dimethyl-naphtho[2,3-b]thiophen-4-yl)-6-isopropyl-phenoxy]-3-phenyl-propionic acid] | – | 110 | −83.88 | – | % Change Insulin from Vehicle (diabetic (ob/ob) mice; dose 100 mg/Kg): −90.80 ^ %; % Change Glucose from Vehicle (diabetic (ob/ob) mice; dose 100 mg/Kg): −28.20 ^ % |
| CCC(C)c1cc(-c2c3ccccc3c(Br)c3sc(C)c(C)c23)cc(Br)c1O[C@H](Cc1ccccc1)C(=O)O (stereo partly drawn) [Example 42, (R)-2-[2-Bromo-4-(9-bromo-2,3-dimethyl-naphtho[2,3-b]thiophen-4-yl)-6-sec-butyl-phenoxy]-3-phenyl-propionic acid] | – | 89 | −63.41 | −32.5 ^ % | – |
| CCc1cc(-c2c3ccccc3c(Br)c3sc(C)c(C)c23)cc(Br)c1O[C@H](Cc1ccccc1)C(=O)O [Example 43, (R)-2-[2-Bromo-4-(9-bromo-2,3-dimethyl-naphtho[2,3-b]thiophen-4-yl)-6-ethyl-phenoxy]-3-phenyl-propionic acid] | – | 171 | −78.84 | −45.2 ^ % | – |
| Cc1sc2c(Br)c3ccccc3c(-c3ccc(O[C@H](Cc4ccccc4)C(=O)O)c(C(C)C)c3)c2c1C [Example 44, (R)-2-[4-(9-Bromo-2,3-dimethyl-naphtho[2,3-b]thiophen-4-yl)-6-isopropyl-phenoxy]-3-phenyl-propionic acid] | – | 237 | −68.50 | −17.2 ^ % | – |
| Cc1cc(-c2c3ccccc3c(Br)c3sc(C)c(C)c23)cc(C)c1O[C@H](Cc1ccccc1)C(=O)O [Example 49, (R)-2-[4-(9-Bromo-2,3-dimethyl-naphtho[2,3-b]thiophen-4-yl)-2,6-dimethyl-phenoxy]-3-phenyl-propionic acid] | – | – | −89.36 | – | % Change Glucose from Vehicle (diabetic (ob/ob) mice; [4]): −35.1 ^ % |
| Cc1sc2c(Br)c3ccccc3c(-c3cc(Br)c(O)c(NC(=O)OC(C)(C)C)c3)c2c1C [Example 56, [3-Bromo-5-(9-bromo-2,3-dimethyl-naphtho[2,3-b]thiophen-4-yl)-2-hydroxy-phenyl]-carbamic Acid tert-Butyl Ester] | 205 to 207 | 489 | – | – | – |
| COc1c(N)cc(-c2c3ccccc3c(Br)c3sc(C)c(C)c23)cc1Br [Example 58, 3-Bromo-5-(9-bromo-2,3-dimethyl-naphtho[2,3-b]thiophen-4-yl)-2-methoxy-phenylamine] | 198 to 200 | – | – | – | – |
| COC(=O)CNc1cc(-c2c3ccccc3c(Br)c3sc(C)c(C)c23)cc(Br)c1OC [Example 59, [3-Bromo-5-(9-bromo-2,3-dimethyl-naphtho[2,3-b]thiophen-4-yl)-2-methoxy-phenylamino]-acetic Acid Methyl Ester] | 194 to 198 | 2200 | – | – | – |
| CCc1cc(-c2c3ccccc3c(Br)c3sc(C)c(C)c23)cc(CC)c1O[C@H](Cc1ccccc1)C(=O)O [Example 61, (R)-2-[4-(9-Bromo-2-,3-dimethyl-naphtho[2,3-b]thiophen-4-yl)-2,6-diethyl-phenoxy]-3-phenyl-propionic acid] | – | 164 | – | – | % Change Glucose from Vehicle (diabetic (ob/ob) mice; dose 10 mg/Kg, measured at 0 hour): −32.8 (c) % |
